# Laboratory results: patent US20210403975A1, “PHENOTYPIC ANTIMICROBIAL SUSCEPTIBILITY PROFILING OF UNIDENTIFIED PATHOGENS DIRECTLY FROM PATIENT SAMPLES” (GeneFluidics, Inc., priority 2020, published 2021)
# Where two headings read alike, the source gives them in different places.
# Tests used:
# P. aeruginosa ATCC 27853 = experiment: MIC of the strain used in the gentamicin/meropenem checkerboard; type: cell-based; settings: P. aeruginosa ATCC 27853, FIG. 6A legend
# Protocol: FIG. 6A-C presents a (A) P. aeruginosa ATCC 27853 5×5 checkerboard with gentamicin (MIC: 1 μg/mL) and meropenem (MIC: 0.5 μg/mL). Assay results after 3.5 hours of incubation at 37° C. (B) A 3×3 checkerboard of gentamicin and meropenem on the same P. aeruginosa strain. (C) An exemplary embodiment of a 96-well checkerboard plate for 66 combinations. ABX are gray-scaled with different intensities to represent different concentrations.
# The disclosure provides for the establishment and validation of an automated protocol to assess combinations of two or more antimicrobials to assess antimicrobial susceptibility directly from pediatric patients' specimens during an emergency or unprecedented pandemic. The direct-from-specimen AST protocols discussed above are expanded into a 96-well plate-based checkerboard test to assess 66 preselected combinations of 25 antibiotics as illustrated in FIG. 6C.
# CDC KP 522 [1] = experiment: Preliminary accelerated colistin AST, 2 hours drug-bug exposure; type: cell-based, Klebsiella pneumoniae; settings: colistin 0.25-8 μg/mL, 2 hours exposure
# Text: (§1) Direct-from-specimen of HR approach. HR is a poorly characterized phenomenon and the lack of consensus-based standards further complicates the study of antibiotic resistance. In addition, its clinical relevance is uncertain due to a lack of a standardized procedure to be implemented into the current workflow in clinical microbiology laboratories. […] FIG. 8C is the HR testing on the system.
# KP 525 [2] = experiment: as above; type: cell-based, Klebsiella pneumoniae; settings: colistin 0.25-8 μg/mL, 2 hours exposure
# Text: as §1
# [3] = test system: CDC Enterobacter cloacae (EbC) 545; experiment: as above; type: cell-based; settings: 2 hours CST exposure in stripwell, FIG. 8A
# Text: as §1
# [4] = test system: CDC Proteus mirabilis (PM) 29; experiment: as above; type: cell-based; settings: CDC PM 29; 2 hours exposure
# Text: as §1
# [5] = test system: Klebsiella pneumoniae (KP) 138; experiment: as above; type: cell-based; settings: 2 hours CST exposure in stripwell, FIG. 8A
# Text: as §1
# [6] = test system: CDC Enterobacter cloacae (EbC) 545; settings: CDC EbC 545; cited from earlier work
# [7] = test system: Klebsiella pneumoniae (KP) 138; settings: cited from earlier work
# CDC KP 522 [8] = settings: cited from earlier work
# KP 525 [9] = settings: cited from earlier work
# [10] = test system: CDC Proteus mirabilis (PM) 29; settings: CDC PM 29; cited from earlier work
# CDC 349 E. coli = settings: cited from earlier work
# CDC69 (resistant strain) = experiment: Direct-from-specimen AST, GC ratio trend over increasing meropenem concentrations; type: cell-based; settings: CDC 69; 4-hour antibiotic exposure; meropenem 1 to 64 μg/mL; agrees with CDC AR Bank MIC
# Text: (§2) The direct-from-specimen AST disclosed herein will start with various types of specimens with an unknown concentration of pathogens, from 0 to >10^8 CFU/mL. In order to determine the minimum assay time needed for quantification of RNA transcription at different levels of pathogen concentration, a correlation between the limit of detection (LOD) of the current molecular analysis platform (see FIG. 3 steps 1-17) with the assay turnaround time (TAT) was established (see FIG. 4). […] Target pathogen enrichment and matrix component removal can be carried out by the built-in centrifugal module to achieve lower target LODs with TAT of 42 minutes to 110 minutes. For low-abundance pathogens and early infection diagnostics, additional viability culture steps with TAT of 240 minutes to 330 minutes can be included to achieve an LOD of <10 CFU/mL. The direct-from-specimen AST method disclosed herein will encompass these assay parameters. […] Semi-automatic AST tests directly from whole blood and urine contrived samples were evaluated in FIG. 5 A-C. […]
# (§3) Direct-from-specimen AST Analytical Validation Protocol: (1) The user loads the specimen collection tube into the system, which then (2) scans the bar code to determine specimen type. […] The system incubates enzyme, then performs electrochemical reading and (10) AST reporting.
# [11] = test system: CDC77 (susceptible strain); experiment: as above; type: cell-based; settings: 4-hour antibiotic exposure, meropenem 1 to 64 μg/mL, agrees with CDC AR Bank MIC
# Text: as §2, §3
compound,measurement,setting,value
gentamicin,MIC,P. aeruginosa ATCC 27853,1 µg/mL
colistin,growth response to colistin exposure,CDC KP 522 [1],not affected
same,growth response to colistin exposure,KP 525 [2],not affected
same,growth response to colistin exposure,[3],clear inhibited growth
same,susceptibility to colistin relative to other strains tested,[4],least susceptible
same,growth response to colistin exposure,[5],clear inhibited growth
same,MIC,[6],≤ 0.25 µg/mL
same,MIC,[7],2 µg/mL
same,MIC,CDC KP 522 [8],> 8 µg/mL
same,MIC,KP 525 [9],> 8 µg/mL
same,MIC (listed),[10],> 4 µg/mL
same,MIC,CDC 349 E. coli,2 to 4 µg/mL
C[C@@H](O)[C@H]1C(=O)N2C(C(=O)O)=C(S[C@@H]3CN[C@H](C(=O)N(C)C)C3)[C@H](C)[C@H]12 [meropenem],MIC,"P. aeruginosa ATCC 27853; Pseudomonas aeruginosa, ATCC27853, read-out: MIC",0.5 µg/mL
same,MIC reported from trend of GC ratio,CDC69 (resistant strain),8 µg/mL
same,MIC reported from trend of GC ratio,[11],< 1 µg/mL
